Data taken from the supplement of paper PMC10307832.

What was measured:
Assay in all cases: relative viability (nuclei count vs DMSO), 5 days (fraction); higher = more cells survive
[1] = compound: CC1=CC=C(C=C1)C(=O)CN2C3=C(CCCC3)SC2=N [Pifithrin_alpha] + CC(C)C[C@H](NC(=O)[C@H](Cc1ccccc1)NC(=O)c1cnccn1)B(O)O [Bortezomib] (partner 0.002 µM)
Method in brief: (§1)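 Cells from lung cancer lines were seeded into 1536-well plates and, one day later, dosed by pin tool. Treatments were either a single drug or a fixed dose of an anchor drug with five library-drug doses (not always all listed) in √10 steps. After 5 days, nuclei were stained in a one-step fixation (final 0.05% Triton X-100, 1% formaldehyde, 1 ug/ml Hoechst) and counted on 4× images, and relative viability is the treated-to-vehicle nuclei ratio, as the median of duplicate plates.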

[2] = compound: CC1=CC=C(C=C1)C(=O)CN2C3=C(CCCC3)SC2=N [Pifithrin_alpha] + COc1cc2c(Oc3ccc(NC(=O)C4(C(=O)Nc5ccc(F)cc5)CC4)cc3F)ccnc2cc1OCCCN1CCOCC1 [Foretinib] (partner 0.25 µM)
Method in brief: as §1

[3] = compound: CNC(=O)c1ccccc1Sc1ccc2c(/C=C/c3ccccn3)n[nH]c2c1 [Axitinib] + Cc1cc(Nc2cc(N3CCN(C)CC3)nc(Sc3ccc(NC(=O)C4CC4)cc3)n2)n[nH]1 [Tozasertib] (partner 0.1 µM)
Method in brief: as §1

[4] = compound: Nc1nc(Nc2ccc3c(c2)CC[C@@H](N2CCCC2)CC3)nn1-c1cc2c(nn1)-c1ccccc1CCC2 [Bemcentinib] + O=C(CCCCCCC(=O)Nc1ccccc1)NO [Vorinostat] (partner 1 µM)
Method in brief: as §1

Row | Cell Line | relative viability ([1]; first compound 1 µM) | relative viability ([1]; first compound 3.162 µM) | relative viability ([1]; first compound 10 µM) | relative viability ([1]; first compound 31.62 µM) | relative viability ([1]; first compound 100 µM) | relative viability ([2]; first compound 1 µM) | relative viability ([2]; first compound 3.162 µM) | relative viability ([2]; first compound 10 µM) | relative viability ([2]; first compound 31.62 µM) | relative viability ([2]; first compound 100 µM) | relative viability ([3]; first compound 0.005 µM) | relative viability ([3]; first compound 0.05 µM) | relative viability ([3]; first compound 0.1581 µM) | relative viability ([3]; first compound 0.5 µM) | relative viability ([4]; first compound 0.04 µM) | relative viability ([4]; first compound 0.1265 µM) | relative viability ([4]; first compound 0.4 µM) | relative viability ([4]; first compound 1.265 µM) | relative viability ([4]; first compound 4 µM) | relative viability ([3]; first compound 0.01581 µM)
1 | NCI-H520 | 0.64 | 0.771 | 0.567 | 0.386 | 0.739 | 0.793 | 1.17 | 0.852 | 0.528 | 0.81 | 0.401 | 0.439 | 0.417 | 0.347 | 0.678 | 0.902 | 0.83 | 0.626 | 0.761 | 
2 | NCI-H596 | 0.969 | 1.1 | 1.23 | 1.03 | 1.06 | 0.924 | 0.737 | 0.823 | 0.735 | 0.958 | 1.05 | 0.877 | 0.893 | 0.935 | 0.582 | 0.449 | 0.721 | 0.391 | 0.674 | 0.938
3 | NCI-H647 | 0.992 | 0.966 | 0.706 |  | 0.736 | 1.07 | 1.25 | 1.04 | 0.724 | 1.11 | 0.383 | 0.264 | 0.566 | 0.516 | 0.649 | 0.55 | 0.594 | 0.424 | 0.675 | 0.354
4 | NCI-H661 | 0.784 | 0.82 | 0.909 | 0.925 | 1.02 | 0.996 | 1 | 0.981 | 0.94 | 0.904 | 0.351 | 0.363 | 0.359 | 0.371 | 0.774 | 0.778 | 0.849 | 0.789 | 0.838 | 0.363
5 | NCI-H727 | 0.786 | 0.958 | 0.696 | 0.446 | 0.793 | 0.903 | 0.759 | 0.837 |  | 0.75 | 0.543 | 0.625 | 0.674 | 0.746 | 1.02 | 1.14 | 1.18 | 0.858 | 1.2 | 0.628
6 | NCI-H838 | 0.786 | 0.628 | 0.599 | 0.626 | 0.62 | 1.06 | 0.933 | 0.991 | 0.8 | 0.762 | 0.305 | 0.265 | 0.323 | 0.323 | 0.746 | 0.799 | 0.718 | 0.82 | 0.719 | 0.263
7 | NCI-H1355 | 1.17 | 1.04 | 0.954 | 0.789 | 1.03 | 0.949 | 0.743 | 0.663 | 0.587 | 0.65 | 0.679 | 0.544 | 0.54 | 0.617 | 0.596 | 0.617 | 0.701 | 0.65 | 0.687 | 0.587
8 | NCI-H1437 | 0.567 | 0.363 | 0.401 | 0.319 | 0.281 | 1.4 | 1.33 | 1.21 | 0.794 | 0.93 | 0.403 | 0.406 | 0.459 | 0.511 | 0.857 | 0.914 | 0.97 | 0.955 | 0.889 | 0.465
